What all share (test): combination Emax (second highest fraction inhibited in the dose matrix, 72 h); higher = more inhibition; extreme values may be limits of the assay
Test [1] has as its system DEL (T-Cell Non-Hodgkin's Lymphoma). An outline of the steps:
(§1)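 Cell lines in DMEM/F12 or RPMI with 10% FBS were plated in 1536-well plates, held 24 hours at 37°C, 5% CO2, then given two-drug dose matrices for 72 hours (DMSO typically 0.2%). Viability was read by CellTiter-Glo 2.0 luminescence and scaled as inhibition from 0 (vehicle wells) to 1 (blank wells). Combination Emax is the second-highest inhibition in the matrix; Bliss excess is observed combination effect minus expected EA + EB − EA·EB, EA and EB being single-agent effects.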

In test [2] the test system is SNU-5 (Gastric Carcinoma). The method in brief: as §1
For the next test, the system named is ES4 (Ewing's Sarcoma). The method in brief: as §1
Test [3] has as its system ME-1 (Acute Myeloid Leukemia). An outline of the steps:
as §1

Test [4] relates to UM-UC-3 (Bladder Carcinoma). The method in brief:
as §1

In test [5] the test system is TCCSUP (Bladder Carcinoma). The method in brief:
as §1

Test [6] relates to RO82-W-1 (Thyroid Gland Carcinoma). The method in brief: as §1
The test system of test [7] is TE-15 (Esophageal Squamous Cell Carcinoma). An outline of the steps: as §1
In test [8] the test system is CCRF-CEM (T-Lymphoblastic Leukemia). An outline of the steps: as §1
The subject of another test is HOS (Osteosarcoma). An outline of the steps: as §1
In test [9] the test system is HT-1376 (Bladder Carcinoma). The method in brief:
as §1

The test system of test [10] is HCC1806 (Breast Carcinoma). The method in brief:
as §1

The next test deals with T98G (Glioblastoma). An outline of the steps:
as §1

In test [11] the test system is B-CPAP (Thyroid Gland Carcinoma). The method in brief:
as §1

The subject of test [12] is KP-1N (Pancreatic Carcinoma). An outline of the steps:
as §1

For test [13], the system named is LS-180 (Colorectal Carcinoma). An outline of the steps: as §1
Test [14] has as its system RC-K8 (B-Cell Non-Hodgkin's Lymphoma). The method in brief: as §1
In test [15] the test system is Hs-578-T (Breast Carcinoma). An outline of the steps: as §1
For test [16], the system named is SK-ES-1 (Ewing's Sarcoma). The method in brief: as §1
For test [17], the system named is KURAMOCHI (Ovarian Carcinoma). The method in brief:
as §1

Take `CN(CCO)CC[C@H](CSc1ccccc1)Nc1ccc(S(=O)(=O)NC(=O)c2ccc(N3CCC([C@@H](O)c4ccccc4-c4ccc(Cl)cc4)CC3)cc2)cc1S(=O)(=O)C(F)(F)F` [AZD4320] + CN(C)CCCOc1ccc(-c2ccc3ncc4c(c3c2)n(C2CCOCC2)c(=O)n4C)cn1 [AZD0156] (first compound max 1 µM, 7x7, partner max 1 µM): the “combination Emax” value in [1] worked out at 0.357; in test [2], 0.245; with ES4 (Ewing's Sarcoma) it was 0.655; in [3] it was 1; in [4] it was 0.201; in test [5], 0.127. Further, the “combination Emax” value turned out to be 0.469 in [6]; 0.0786 in test [7]; 1 in [8]; 0.0916 in the test on HOS (Osteosarcoma); 0.484 in test [9]; 0.133 in test [10]. The “combination Emax” value in the test with T98G (Glioblastoma) amounted to 0.126; in test [11], 0.408; in test [12] it was 0.194; in [13] it was 0.159; in test [14], 0.407; in test [15] it was 0.531. Besides, the “combination Emax” value in test [16] is 0.899; in test [17], 0.189.

For the compound `CN(CCO)CC[C@H](CSc1ccccc1)Nc1ccc(S(=O)(=O)NC(=O)c2ccc(N3CCC([C@@H](O)c4ccccc4-c4ccc(Cl)cc4)CC3)cc2)cc1S(=O)(=O)C(F)(F)F` [AZD4320] + C[C@@H]1COCCN1C2=NC(=NC(=C2)C3(CC3)[S@](=N)(=O)C)C4=C5C=CNC5=NC=C4 [AZD6738] (first compound max 1 µM, 7x7, partner max 10 µM), the “combination Emax” value in test [1] worked out at 1; in test [2] it was 0.978; in the test on ES4 (Ewing's Sarcoma), 1; in test [3], 1; in test [4], 0.7; in test [5], 0.865. For the same compound, the “combination Emax” value in test [6] came to 0.785; in test [7], 0.908; in test [8], 1; with HOS (Osteosarcoma), 0.722; in test [9], 0.718; in test [10], 0.972. Moreover, the “combination Emax” value with T98G (Glioblastoma) came to 0.954; in test [11] it was 0.804; in [12], 0.269; in test [13], 0.739; in [14], 0.956; in test [15], 0.991. In addition, the “combination Emax” value in test [16] is 1; in test [17], 0.687.

For `CN(CCO)CC[C@H](CSc1ccccc1)Nc1ccc(S(=O)(=O)NC(=O)c2ccc(N3CCC([C@@H](O)c4ccccc4-c4ccc(Cl)cc4)CC3)cc2)cc1S(=O)(=O)C(F)(F)F` [AZD4320] + C[C@@H](Nc1cc(F)cc(F)c1)c1cc(C(=O)N(C)C)cc2c(=O)cc(N3CCOCC3)oc12 [AZD8186] (first compound max 1 µM, 7x7, partner max 3 µM), the “combination Emax” value in test [1] is 0.888; in test [2], 0.703; with ES4 (Ewing's Sarcoma), 0.849; in [3], 1; in [4], 0.374; in test [5], 0.417. Also, the “combination Emax” value in [6] turned out to be 0.521; in test [7] it was 0.551; in [8], 1; with HOS (Osteosarcoma) it was 0.37; in test [9], 0.551; in test [10], 0.696. For the same compound, the “combination Emax” value with T98G (Glioblastoma) came out at 0.482; in test [11], 0.612; in test [12], 0.303; in test [13], 0.504; in [14] it was 0.999; in [15], 0.874. Moreover, the figures for the “combination Emax” value in [16] and in test [17] were 0.987 and 0.548, respectively.

Turning to `CN(CCO)CC[C@H](CSc1ccccc1)Nc1ccc(S(=O)(=O)NC(=O)c2ccc(N3CCC([C@@H](O)c4ccccc4-c4ccc(Cl)cc4)CC3)cc2)cc1S(=O)(=O)C(F)(F)F` [AZD4320] + Cc1cc2ncnn2cc1Nc1ncc2c(n1)n(C1CCOCC1)c(=O)n2C [AZD7648] (first compound max 1 µM, 7x7, partner max 10 µM), the “combination Emax” value in [1] was 0.315; in [2], 0.45; in the test on ES4 (Ewing's Sarcoma) it was 0.619; in [3] it was 1; in test [4] it was 0.121; in [5] it was 0.268. Besides, the “combination Emax” value in test [6] amounted to 0.395; in [7], 0.0708; in test [8] it was 1; with HOS (Osteosarcoma) it was 0.134; in test [9], 0.786; in test [10], 0.0765. Besides, the “combination Emax” value was found to be 0.255 in the test on T98G (Glioblastoma); 0.408 in test [11]; 0.0993 in test [12]; 0.234 in [13]; 0.596 in [14]; 0.63 in test [15]. Also, the “combination Emax” value in test [16] was 0.911; in test [17], 0.161.

Regarding `CN(CCO)CC[C@H](CSc1ccccc1)Nc1ccc(S(=O)(=O)NC(=O)c2ccc(N3CCC([C@@H](O)c4ccccc4-c4ccc(Cl)cc4)CC3)cc2)cc1S(=O)(=O)C(F)(F)F` [AZD4320] + Cn1cnc2c(F)c(Nc3ccc(Br)cc3Cl)c(C(=O)NOCCO)cc21 [Selumetinib] (first compound max 1 µM, 7x7, partner max 3 µM), the “combination Emax” value in test [1] came to 0.858; in test [2], 0.759; with ES4 (Ewing's Sarcoma) it was 0.823; in test [3], 1; in [4], 0.332; in test [5], 0.405. Further, the “combination Emax” value was 0.538 in [6]; 0.43 in test [7]; 0.993 in [8]; 0.368 with HOS (Osteosarcoma); 0.687 in test [9]; 0.795 in test [10]. The “combination Emax” value in the test with T98G (Glioblastoma) was determined as 0.277; in test [11], 0.741; in [12], 0.196; in test [13], 0.691; in [14], 0.993; in test [15], 0.812. For the same compound, the “combination Emax” value in [16] is 0.983; in test [17], 0.584.

On to `COc1nnc2ccc(N3CCC(c4ccc(OCCN5CCN(C)C(=O)[C@H]5C)cc4)CC3)nn12` [AZD5153] + C=CCn1c(=O)c2cnc(Nc3ccc(N4CCN(C)CC4)cc3)nc2n1-c1cccc(C(C)(C)O)n1 [AZD1775] (first compound max 1 µM, partner max 1 µM), for which the “combination Emax” value in test [1] was 1; in [2], 0.522; in the test on ES4 (Ewing's Sarcoma), 0.758; in [3], 0.572; in test [4] it was 0.393; in [5], 0.578. The “combination Emax” value came to 0.451 in [6]; 0.756 in [7]; 1 in [8]; 0.501 in the test with HOS (Osteosarcoma); 0.517 in test [9]; 0.9 in test [10]. For the same compound, the “combination Emax” value in the test on T98G (Glioblastoma) worked out at 0.717; in [11], 0.734; in test [12], 0.655; in test [13], 0.623; in test [14] it was 0.787; in test [15], 0.822. The “combination Emax” value in test [16] worked out at 0.941; in test [17], 0.83.

Values taken from the supplement of paper PMC11061612.
